Measured values published in PubChem BioAssay (NCI).
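Compound exposure: 48 hours, 5 concentrations, 96-well plates. TGI: total growth inhibition.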

Legend:
Test in all cases: DTP human tumour cell line panel, 48 h
NCI-H226 lung = test system: NCI-H226 lung
OVCAR-5 ovarian = test system: OVCAR-5 ovarian
HT29 colon = test system: HT29 colon
EKVX NSCLC = test system: EKVX NSCLC
SF-268 CNS = test system: SF-268 CNS
UACC-62 melanoma = test system: UACC-62 melanoma
U251 CNS = test system: U251 CNS
786-0 renal = test system: 786-0 renal
MDA-MB-231 breast = test system: MDA-MB-231 breast
CCRF-CEM leukemia = test system: CCRF-CEM leukemia
HOP-92 NSCLC = test system: HOP-92 NSCLC
PC-3 prostate = test system: PC-3 prostate
MDA-N = test system: MDA-N
M14 melanoma = test system: M14 melanoma
MOLT-4 leukemia = test system: MOLT-4 leukemia
TK-10 renal = test system: TK-10 renal
HOP-62 NSCLC = test system: HOP-62 NSCLC
SF-295 CNS = test system: SF-295 CNS
SK-MEL-2 melanoma = test system: SK-MEL-2 melanoma
HCC-2998 colon = test system: HCC-2998 colon

`[O-][N+]1=NC(c2ccccc2)=C1c1ccccc1` showed a TGI (NCI-H226 lung) greater than 50 µM, a TGI (OVCAR-5 ovarian) greater than 50 µM and a TGI (HT29 colon) greater than 50 µM. The TGI (EKVX NSCLC) was greater than 50 µM, the TGI (SF-268 CNS) was greater than 50 µM and the TGI (UACC-62 melanoma) was greater than 50 µM. It also gave a TGI (U251 CNS) greater than 50 µM, a TGI (786-0 renal) greater than 50 µM and a TGI (MDA-MB-231 breast) greater than 50 µM. For the same compound, the TGI (CCRF-CEM leukemia) was greater than 50 µM, the TGI (HOP-92 NSCLC) was greater than 50 µM and the TGI (PC-3 prostate) was greater than 50 µM. It also gave a TGI (MDA-N) greater than 50 µM, a TGI (M14 melanoma) greater than 50 µM and a TGI (MOLT-4 leukemia) greater than 50 µM. It also gave a TGI (TK-10 renal) greater than 50 µM, a TGI (HOP-62 NSCLC) greater than 50 µM and a TGI (SF-295 CNS) greater than 50 µM. It also gave a TGI (SK-MEL-2 melanoma) greater than 50 µM.
`CCOC(=O)c1c(-c2ccc(Br)cc2)ccn1C` was tested, and the TGI (NCI-H226 lung) was greater than 10 µM, the TGI (OVCAR-5 ovarian) was greater than 10 µM and the TGI (HT29 colon) was greater than 10 µM. The TGI (EKVX NSCLC) was greater than 10 µM, the TGI (SF-268 CNS) was greater than 10 µM and the TGI (UACC-62 melanoma) was greater than 10 µM. The TGI (U251 CNS) was greater than 10 µM, the TGI (786-0 renal) was greater than 10 µM and the TGI (MDA-MB-231 breast) was greater than 10 µM. For the same compound, the TGI (CCRF-CEM leukemia) was greater than 10 µM, the TGI (PC-3 prostate) was greater than 10 µM and the TGI (MDA-N) was greater than 10 µM. It also gave a TGI (M14 melanoma) greater than 10 µM, a TGI (MOLT-4 leukemia) greater than 10 µM and a TGI (TK-10 renal) greater than 10 µM. The TGI (HOP-62 NSCLC) was greater than 10 µM, the TGI (SF-295 CNS) was greater than 10 µM and the TGI (SK-MEL-2 melanoma) was greater than 10 µM. It also gave a TGI (HCC-2998 colon) greater than 10 µM.
In the case of `CCOC(=O)c1nc2ccccc2nc1Oc1cc(OC)c(OC)c(OC)c1`, the TGI (OVCAR-5 ovarian) is reported as greater than 100 µM, the TGI (HT29 colon) is reported as greater than 100 µM and the TGI (EKVX NSCLC) is reported as greater than 100 µM. The TGI (SF-268 CNS) was greater than 100 µM, the TGI (UACC-62 melanoma) was greater than 100 µM and the TGI (U251 CNS) was 99.4 µM. For the same compound, the TGI (786-0 renal) was greater than 100 µM, the TGI (MDA-MB-231 breast) was greater than 100 µM and the TGI (CCRF-CEM leukemia) was greater than 100 µM. The TGI (HOP-92 NSCLC) was greater than 100 µM, the TGI (PC-3 prostate) was greater than 100 µM and the TGI (MDA-N) was greater than 100 µM. For the same compound, the TGI (M14 melanoma) was greater than 100 µM, the TGI (MOLT-4 leukemia) was greater than 100 µM and the TGI (TK-10 renal) was greater than 100 µM. The TGI (HOP-62 NSCLC) was greater than 100 µM, the TGI (SF-295 CNS) was greater than 100 µM and the TGI (SK-MEL-2 melanoma) was greater than 100 µM. The TGI (HCC-2998 colon) was greater than 100 µM.
Work on `CC1(C)C2CC3C4CC5(Nc6ccccc6C5N41)[C@]3(C)CC2=O` (some centres undefined) yielded a TGI (NCI-H226 lung) greater than 50 µM, a TGI (OVCAR-5 ovarian) greater than 50 µM and a TGI (HT29 colon) greater than 50 µM. It also gave a TGI (EKVX NSCLC) greater than 50 µM, a TGI (SF-268 CNS) greater than 50 µM and a TGI (UACC-62 melanoma) greater than 50 µM. It also gave a TGI (U251 CNS) greater than 50 µM, a TGI (786-0 renal) greater than 50 µM and a TGI (MDA-MB-231 breast) greater than 50 µM. It also gave a TGI (CCRF-CEM leukemia) greater than 50 µM, a TGI (HOP-92 NSCLC) greater than 50 µM and a TGI (PC-3 prostate) greater than 50 µM. It also gave a TGI (MDA-N) greater than 50 µM, a TGI (MOLT-4 leukemia) greater than 50 µM and a TGI (TK-10 renal) greater than 50 µM. It also gave a TGI (HOP-62 NSCLC) greater than 50 µM, a TGI (SF-295 CNS) greater than 50 µM and a TGI (SK-MEL-2 melanoma) greater than 50 µM. For the same compound, the TGI (HCC-2998 colon) was greater than 50 µM.
With `CN(C)c1ccc(-c2ccc(N(C)C)c3n[se]nc23)c2n[se]nc12` the TGI (NCI-H226 lung) was greater than 100 µM, the TGI (OVCAR-5 ovarian) was greater than 100 µM and the TGI (HT29 colon) was greater than 100 µM. The TGI (EKVX NSCLC) was greater than 100 µM, the TGI (SF-268 CNS) was greater than 100 µM and the TGI (UACC-62 melanoma) was greater than 100 µM. For the same compound, the TGI (U251 CNS) was greater than 100 µM, the TGI (786-0 renal) was greater than 100 µM and the TGI (MDA-MB-231 breast) was greater than 100 µM. The TGI (CCRF-CEM leukemia) was greater than 100 µM, the TGI (HOP-92 NSCLC) was greater than 100 µM and the TGI (PC-3 prostate) was greater than 100 µM. The TGI (MDA-N) was greater than 100 µM, the TGI (MOLT-4 leukemia) was greater than 100 µM and the TGI (TK-10 renal) was greater than 100 µM. The TGI (HOP-62 NSCLC) was greater than 100 µM, the TGI (SF-295 CNS) was greater than 100 µM and the TGI (SK-MEL-2 melanoma) was greater than 100 µM. It also gave a TGI (HCC-2998 colon) greater than 100 µM.
`CC(C)(C)OC(=O)C1=C2C=C(O)C=CC2(C)N(Cc2ccccc2)C1=N` (centres undefined) was tested, and the TGI (NCI-H226 lung) was 28.6 µM, the TGI (OVCAR-5 ovarian) was 33.1 µM and the TGI (HT29 colon) was 14 µM. It also gave a TGI (EKVX NSCLC) of 11.5 µM, a TGI (UACC-62 melanoma) of 29 µM and a TGI (U251 CNS) of 43.3 µM. The TGI (786-0 renal) was 12.7 µM, the TGI (MDA-MB-231 breast) was 21.6 µM and the TGI (CCRF-CEM leukemia) was greater than 38.2 µM. For the same compound, the TGI (HOP-92 NSCLC) was 5.91 µM, the TGI (PC-3 prostate) was 19.8 µM and the TGI (MDA-N) was 20.2 µM. For the same compound, the TGI (M14 melanoma) was 10.4 µM, the TGI (MOLT-4 leukemia) was greater than 32.7 µM and the TGI (TK-10 renal) was 10.2 µM. The TGI (HOP-62 NSCLC) was 30.7 µM, the TGI (SF-295 CNS) was 28.2 µM and the TGI (SK-MEL-2 melanoma) was 33.1 µM. For the same compound, the TGI (HCC-2998 colon) was 29.3 µM.
